From patent US11033641B2, “Radiolabelled mGluR2/3 pet ligands” (Janssen Pharmaceutica NV, priority 2015, dated 2021)

Test system: mGluR2/3
Experiment: microPET scan, baseline and after compound A pretreatment
Type: in vivo
Settings: SD rats
Method: Data were acquired in a 128×128×95 matrix with a pixel width of 0.475 mm and a slice thickness of 0.796 mm. During PET imaging, rats were kept under gas anesthesia (2.5% isoflurane in oxygen at a flow rate of 1 l/min), and their body temperature was maintained between 36.5 and 37° C. using a heating pad. PET data were analyzed using Pmod software version 3.2 (Pmod, Zurich Switzerland).
Sprague-Dawley rats obtained from Harlan (the Netherlands), were housed in groups of four to six per cage until treatment. They were kept at a constant temperature of 21° C. and at a 12-h light/dark cycle, in which lights were switched on at 8:00 a.m. Animals had unrestricted access to food (Teklad Global 16% Protein Rodent Diet, Harlan, Madison, Wis., USA) and water. All animal experiments were performed in compliance with Belgium laws on animal experimentation and after approval by the local animal ethics committee.
All pretreatment solutions were 1 mg/mL solutions in 20% β-cyclodextrine in saline with a pH ranging between 6 and 8, and sterile filtered over a Millex GV filter prior to use.
For the baseline scan, 36-43 MBq of [^18F]-1 was injected in 3 SD rats weighing 229-251 g in the tail vein, and scanned simultaneously during a 90 min dynamic PET scan. For the pretreatment scan using compound A (a NAM compound, selective for mGlu2/3 (˜20 fold selective for 2 over 3) vs other mGluRs), the same animals were injected with 10 mg/kg compound A s.c. 60 minutes prior to injection of 38-37 MBq [^18F]-1 in the tail vein, and scanned simultaneously during a 90 minutes dynamic PET scan.
For the baseline scan, 39-49 MBq of [^18F]-2 was injected in 3 SD rats weighing 301-310 g in a tail vein, and scanned simultaneously during a 90-min dynamic PET scan. For the pretreatment scan using compound A, the same animals were injected with 10 mg/kg compound A s.c. 60 min prior to injection of 46-50 MBq [^18F]-2 in the tail vein, and scanned simultaneously during a 90 min dynamic PET scan.

- Brain uptake in PET scan, in words (90 min dynamic PET scan): high brain uptake
Structure (SMILES): C[C@H]1CN(c2ccc(C(F)(F)F)cc2)C(=O)c2c(C#Cc3cnc(N)cc3C[18F])cnn21 [Compound 1]
- Brain uptake after pretreatment with compound A (10 mg/kg compound A s.c. 60 min before tracer): uptake was reduced after pretreatment with compound A
- mGluR2/3 specificity of binding in vivo (PET, baseline vs compound A pretreatment): good mGluR2/3 specificity
